This note sets out measurements from patent US20230010299A1, “HETEROCYCLIC TRPML1 AGONISTS” (LIBRA THERAPEUTICS, INC., priority 2019, published 2023).

Usually EC50 stands for the concentration needed to bring the measured effect to its halfway point.

This assay deals with T1, TRPML1 (Homo sapiens, UniProt Q9GZU1).
T1 construct: expressed in transfected cells
The experiment in a line: Cellular TRPML1 assay (FLIPR TETRA, GCaMP6f calcium read-out). The assay is classed as cell-based. The settings on record: HEK T-REx/GCaMP6f/TRPML1 cells; Ca2+ response over 300 s, normalized to ML-SA1 50 μM; Ca2+ free or Optimem condition not given; read-out: Ec50 (Activity of TRPML1 agonists). On the procedure:
Buffers and reagents • PBS (D-PBS without calcium and magnesium; EuroClone) • Trypsin (Trypsin 0.05%, EDTA 0.02% in PBS; EuroClone) • DMSO (Sigma) • Ca^2+ free Tyrode's buffer: in-house solution (130 mM NaCl, 5 mM KCl, 1 mM MgCl2, 5 mM NaHCO3, 20 mM HEPES in water at pH 7.4; sterile filtered). • Opti-MEM (Gibco) • Agonist: ML-SA1 (Sigma); stock: 60 mM in DMSO, stored at −20° C. • Blocker: ML-SI3 (in house synthesis); stock: 20 mM in DMSO, stored at −20° C.
The final clone for the TRPML1 assay is HEK T-REx/GCaMP6f/TRPML1.
GCaMP6f is a genetically encoded calcium indicator that is stably expressed in this cell line and used as a fluorescent read-out.
Experiments are performed in 384 MTP format. Cells are seeded at 15000 cells/well either in 25 μl/well of growth medium or in 20 μl/well of Optimem+0.5% FBS without selection antibiotics. Twenty-four hours later, cells are assayed for the response to various compounds using the Ca^2+ sensitive GCaMP6f protein stably expressed in the cells as readout.
The experiment is performed in a 384-well format according to the following procedures for either Ca^2+ free or Optimem conditions: • Ca^2+ free condition (in absence of extracellular Ca^2+): • 24 h after seeding, pre-incubate the cells at room temperature for about 10′. • Then remove the culture medium and replace it with 20 μL of Ca^2+ free Tyrode's buffer. • Start the experiment at the FLIPR^TETRA by injecting 10 μL/w of 3× concentrated test compounds and controls in Ca^2+ free Tyrode's buffer. Monitor the kinetic response over a period of 300 seconds. • Final DMSO concentration: 0.5% • Optimem condition (in presence of extracellular Ca^2+): • 24 h after seeding, pre-incubate the cells at room temperature for about 10′. • Start the experiment at the FLIPR^TETRA by injecting 10 μL/w of 3× concentrated test compounds and controls in Ca^2+ free Tyrode's buffer. Monitor the kinetic response over a period of 300 seconds. • Final DMSO concentration: 0.5%
Data from FLIPR^TETRA measurements are analyzed with the Genedata Screener® software.
Stimulator controls (Col 2): injection of ML-SA1 EC100 (50 μM) in alternated wells positions
Neutral controls (Col 2): injection of 0 mM Ca^2+ free Tyrode's buffer in alternated wells positions.
Test wells (Col 3-22): test compounds dose response curve from either 100 μM with 1:2 dilution steps or from 50 μM with 1:3.16 dilution steps.

T1 sequence (Q9GZU1 whole entry): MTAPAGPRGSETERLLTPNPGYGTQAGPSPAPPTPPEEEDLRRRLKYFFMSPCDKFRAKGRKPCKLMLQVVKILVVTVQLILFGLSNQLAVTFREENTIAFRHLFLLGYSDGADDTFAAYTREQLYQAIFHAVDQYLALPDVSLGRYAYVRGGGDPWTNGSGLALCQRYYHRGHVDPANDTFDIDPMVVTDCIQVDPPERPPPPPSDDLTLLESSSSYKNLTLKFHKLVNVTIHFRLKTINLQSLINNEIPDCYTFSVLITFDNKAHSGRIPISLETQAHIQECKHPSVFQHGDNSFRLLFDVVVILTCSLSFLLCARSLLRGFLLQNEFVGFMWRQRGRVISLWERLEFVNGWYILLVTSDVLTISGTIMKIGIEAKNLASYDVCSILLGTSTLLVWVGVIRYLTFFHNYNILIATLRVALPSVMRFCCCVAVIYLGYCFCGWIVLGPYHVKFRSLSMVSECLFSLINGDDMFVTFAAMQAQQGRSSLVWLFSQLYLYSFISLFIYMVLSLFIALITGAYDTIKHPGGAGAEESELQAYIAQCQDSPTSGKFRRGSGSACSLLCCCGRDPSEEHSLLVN

As for `Cc1ccccc1S(=O)(=O)Nc1ccccc1N1CCN(C(=O)OC(C)(C)C)CC1` [Example 47, tert-butyl 4-(2-((2-methylphenyl)sulfonamido)phenyl)piperazine-1-carboxylate], the EC50 is 5.2 µM.

In the case of `Cc1cccc(S(=O)(=O)Nc2ccccc2N2CCCCC2)c1` [Example 23, 3-methyl-N-[2-(piperidin-1-yl)phenyl]benzene-1-sulfonamide], the EC50 worked out at 15.5 µM.

`CN(C)S(=O)(=O)c1ccc(S(=O)(=O)Nc2ccccc2N2CCC(Oc3ncccn3)CC2)cc1` [Example 89]: the EC50 is 3.2 µM.

In the case of `CN(C)S(=O)(=O)c1ccc(S(=O)(=O)NC2CCCCC2N2CCCCC2)cc1` (stereo not shown) [Example 22, N1,N1-dimethyl-N4-[2-(piperidin-1-yl)cyclohexyl]benzene-1,4-disulfonamide], the EC50 is 98 µM.

`CN(C)S(=O)(=O)c1ccc(S(=O)(=O)Nc2ccccc2N2CCOC(Cc3ccccc3)C2)cc1` (stereo not shown) [Example 101, N1-(2-(2-benzylmorpholino)phenyl)-N4,N4-dimethylbenzene-1,4-disulfonamide]: the EC50 is 4 µM.

In the case of `CN(C)S(=O)(=O)c1ccc(S(=O)(=O)Nc2ccccc2N2CCC(c3ccccc3)CC2)cc1` [Example 12, N1,N1-dimethyl-N4-[2-(4-phenylpiperidin-1-yl)phenyl]benzene-1,4-disulfonamide], the concentration giving a half-maximal response (EC50) was found to be 2.8 µM.

Consider `CCC(=O)N1CCN(c2ccccc2NS(=O)(=O)c2ccc(S(=O)(=O)N(C)C)cc2)CC1` [Example 71, N1,N1-dimethyl-N4-[2-(4-propanoylpiperazin-1-yl)phenyl]benzene-1,4-disulfonamide], for which the EC50 is 17.3 µM.

In the case of `CN(C)S(=O)(=O)c1ccc(S(=O)(=O)Nc2ccccc2N2CCOCC2)cc1` [Example 27, N1,N1-dimethyl-N4-[2-(morpholin-4-yl)phenyl]benzene-1,4-disulfonamide], the EC50 is 13.3 µM.

For `CN(C(=O)c1ccc(S(=O)(=O)N(C)C)cc1)c1ccccc1N1CCCCC1` [Example 15, 4-(dimethylsulfamoyl)-N-methyl-N-[2-(piperidin-1-yl)phenyl]benzamide], the EC50 is 59.1 µM.

With `CCc1ccc(S(=O)(=O)Nc2ccccc2N2CC3CCC2C3)s1` (stereo not shown) [Example 17, N-(2-{2-azabicyclo[2.2.1]heptan-2-yl}phenyl)-5-ethylthiophene-2-sulfonamide], the EC50 turned out to be 18.2 µM.

On to `CC1Cc2cc(S(=O)(=O)Nc3ccccc3N3CCN(C(=O)OC(C)(C)C)CC3)ccc2O1` (single isomer, unassigned) [Example 94, tert-butyl 4-(2-((2-methyl-2,3-dihydrobenzofuran)-5-sulfonamido)phenyl)piperazine-1-carboxylate], for which the EC50 is 3.8 µM.

For the molecule `CN(C)S(=O)(=O)c1ccc(S(=O)(=O)Nc2ccccc2CN2CCCCC2)cc1` [Example 30, N1,N1-dimethyl-N4-(2-(piperidin-1-ylmethyl)phenyl)benzene-1,4-disulfonamide], the EC50 was determined as 50 µM.

Take `CC(C)c1ccc(S(=O)(=O)Nc2ccccc2N2CCN(C(=O)OC(C)(C)C)CC2)cc1` [Example 28, tert-butyl 4-(2-((4-isopropylphenyl)sulfonamido)phenyl)piperazine-1-carboxylate]: the EC50 was found to be 2.9 µM.

For `Cc1cncc(S(=O)(=O)Nc2ccccc2N2CCN(C(=O)OC(C)(C)C)CC2)c1` [Example 60, tert-butyl 4-(2-((5-methylpyridine)-3-sulfonamido)phenyl)piperazine-carboxylate], the EC50 is 7.3 µM.

Regarding `CN(C)S(=O)(=O)c1ccc(S(=O)(=O)Nc2ccccc2N2CCC(Oc3ccncc3)CC2)cc1` [Example 106, N1,N1-dimethyl-N4-(2-(4-(pyridin-4-yloxy)piperidin-1-yl)phenyl)benzene-1,4-disulfonamide], the EC50 is 8.6 µM.

Consider `CN(C)S(=O)(=O)c1ccc(S(=O)(=O)Nc2ccccc2N2CCCOCC2)cc1` [Example 43, N1-(2-(l,4-oxazepan-4-yl)phenyl)-N4,N4-dimethylbenzene-1,4-disulfonamide], for which the EC50 came to 7 µM.

`CN(C)S(=O)(=O)c1ccc(S(=O)(=O)Nc2ccccc2N2CCCC(c3ccccc3)C2)cc1` (stereo not shown) [Example 35, N1,N1-dimethyl-N4-[2-(3-phenylpiperidin-1-yl)phenyl]benzene-1,4-disulfonamide]: the EC50 was 7.7 µM.

On to `CCCOC1CCN(c2ccccc2NS(=O)(=O)c2ccc(S(=O)(=O)N(C)C)cc2)CC1` [Example 45, N1,N1-dimethyl-N4-(2-(4-propoxypiperidin-1-yl)phenyl)benzene-1,4-disulfonamide], for which the EC50 was determined as 1.9 µM.

In the case of `CN(C(=O)c1ccc(S(=O)(=O)N(C)C)cc1)c1ccccc1N1CCC(Oc2ccccn2)CC1` [Example 10, 4-(N,N-dimethylsulfamoyl)-N-methyl-N-(2-(4-(pyridin-2-yloxy)piperidin-1-yl)phenyl)benzamide], the EC50 came to 8.4 µM.

As for `COC1CCCN(c2ccccc2NS(=O)(=O)c2ccc(S(=O)(=O)N(C)C)cc2)CC1` (single isomer, unassigned) [Example 42, N1-(2-(4-methoxyazepan-1-yl)phenyl)-N4,N4-dimethylbenzene-1,4-disulfonamide], the EC50 was 5.6 µM.

Take `CN(C)S(=O)(=O)c1ccc(S(=O)(=O)Nc2ccccc2N2CCC(F)CC2)cc1` [Example 44, N1-(2-(4-fluoropiperidin-1-yl)phenyl)-N4,N4-dimethylbenzene-1,4-disulfonamide]: the EC50 is 2.6 µM.

For `CN(C)S(=O)(=O)c1ccc(S(=O)(=O)Nc2ccccc2N2CCc3ccccc3C2)cc1` [Example 9, N1,N1-dimethyl-N4-[2-(1,2,3,4-tetrahydroisoquinolin-2-yl)phenyl]benzene-1,4-disulfonamide], the EC50 came to 47.4 µM.

`CCCNC(=O)C1CCN(c2ccccc2NS(=O)(=O)c2ccc(S(=O)(=O)N(C)C)cc2)CC1` [Example 87, 1-{2-[4-(dimethylsulfamoyl)benzenesulfonamido]phenyl}-N-propylpiperidine-4-carboxamide]: the EC50 was 18.5 µM.

`CN(C)S(=O)(=O)c1ccc(S(=O)(=O)NC2CCCCC2N2CCC(Oc3ccccc3)CC2)cc1` (single isomer, unassigned) [Example 62, N1,N1-dimethyl-N4-[2-(4-phenoxypiperidin-1-yl)cyclohexyl]benzene-1,4-disulfonamide]: the EC50 was determined as 15.9 µM.

As for `Cc1ncsc1C(=O)N1CCN(c2ccccc2NS(=O)(=O)c2ccc(S(=O)(=O)N(C)C)cc2)CC1` [Example 80, N1,N1-dimethyl-N4-{2-[4-(4-methyl-1,3-thiazole-5-carbonyl)piperazin-1-yl]phenyl}benzene-1,4-disulfonamide], the EC50 came out at 18.9 µM.

In the case of `CC1Cc2cc(S(=O)(=O)Nc3ccccc3N3CCN(C(=O)OC(C)(C)C)CC3)ccc2O1` (single isomer, unassigned) [Example 93, tert-butyl 4-(2-((2-methyl-2,3-dihydrobenzofuran)-5-sulfonamido)phenyl)piperazine-1-carboxylate], the concentration giving a half-maximal response (EC50) was found to be 4.9 µM.

`COC(=O)C1CCN(c2ccccc2NS(=O)(=O)c2ccc(S(=O)(=O)N(C)C)cc2)CC1` [Example 105, methyl 1-(2-((4-(N,N-dimethylsulfamoyl)phenyl)sulfonamido)phenyl)piperidine-4-carboxylate]: the EC50 was found to be 18 µM.

On to `CN(C)S(=O)(=O)c1ccc(S(=O)(=O)Nc2ccccc2N2CCCC2)cc1` [Example 32, N1,N1-dimethyl-N4-[2-(pyrrolidin-1-yl)phenyl]benzene-1,4-disulfonamide], for which the EC50 is 19.2 µM.

As for `CCc1ccc(S(=O)(=O)N(C)c2ccccc2N2CC3CCC2C3)s1` (stereo not shown) [Example 21, N-(2-{2-azabicyclo[2.2.1]heptan-2-yl}phenyl)-5-ethyl-N-methylthiophene-2-sulfonamide], the EC50 was found to be 55.6 µM.

Take `CC1Cc2cc(S(=O)(=O)Nc3ccccc3N3CCN(C(=O)OC(C)(C)C)CC3)ccc2O1` (racemic) [Example 92, tert-butyl 4-(2-((2-methyl-2,3-dihydrobenzofuran)-5-sulfonamido)phenyl)piperazine-1-carboxylate]: the EC50 amounted to 2.4 µM.

As to `CCc1ccc(S(=O)(=O)Nc2ccccc2N2CCN(C(=O)OC(C)(C)C)CC2)cc1` [Example 18, tert-butyl 4-(2-((4-ethylphenyl)sulfonamido)phenyl)piperazine-1-carboxylate], the EC50 amounted to 3.5 µM.
